± gives the standard deviation of the reports.

`*Oc1ccc(C(c2ccc(Oc3ccc4c(c3)C(=O)N(CCCCN3C(=O)c5ccc(*)cc5C3=O)C4=O)cc2)(C(F)(F)F)C(F)(F)F)cc1` (repeat unit): the glass transition temperature was 180.00 °C.
`*c1ccc(Oc2ccc(C(C)(C)c3ccc(Oc4ccc(-n5c(=O)c6cc7c(=O)n(*)c(=O)c7cc6c5=O)cc4)cc3)cc2)cc1` (repeat unit): the glass transition temperature came out at 283.00 °C.
`*Oc1ccc(Sc2ccc(Oc3ccc4c(c3)C(=O)N(c3cc(N5C(=O)c6ccc(*)cc6C5=O)cc(C(F)(F)F)c3)C4=O)cc2)cc1` (repeat unit) showed a glass transition temperature of 218.00 °C.
In the case of `*c1ccc(-c2ccc(N3C(=O)c4cc5c(cc4C3=O)C(C(F)(F)F)(C(F)(F)F)c3cc4c(cc3O5)C(=O)N(*)C4=O)cc2OC(C)(F)F)c(OC(C)(F)F)c1` (repeat unit) it was 363.00 °C.
In the case of `*c1ccc(P(=O)(c2ccccc2)c2ccc(-n3c(=O)c4cc5c(=O)n(*)c(=O)c5cc4c3=O)cc2)cc1` (repeat unit) it was 425.00 °C; in that of `*c1cc(N2C(=O)c3ccc(-c4ccc5c(c4)C(=O)N(*)C5=O)cc3C2=O)ccc1OCC(F)(F)C(F)(F)C(F)(F)C(F)(F)C(F)(F)C(F)(F)C(F)(F)F` (repeat unit), 250.00 °C; in that of `*c1cc(N2C(=O)c3ccc(-c4ccc5c(c4)C(=O)N(*)C5=O)cc3C2=O)ccc1OCC(F)(F)C(F)(F)C(F)(F)F` (repeat unit), 300.00 °C.
`*c1cc(N2C(=O)c3ccc(-c4ccc5c(c4)C(=O)N(*)C5=O)cc3C2=O)ccc1OCC(F)(F)C(F)(F)C(F)(F)C(F)(F)C(F)(F)C(F)(F)C(F)(F)C(F)(F)C(F)(F)C(F)(F)F` (repeat unit) came in with a glass transition temperature of 230.00 °C.
Take `*c1ccc(-c2ccc(N3C(=O)c4ccc(-c5ccc6c(c5)C(=O)N(*)C6=O)cc4C3=O)cc2OC(F)(F)F)c(OC(F)(F)F)c1` (repeat unit): the glass transition temperature turned out to be 335.00 °C.
Compound `*c1cccc(Oc2ccc(P(=O)(c3ccccc3)c3ccc(Oc4ccc(N5C(=O)c6ccc(-c7ccc8c(c7)C(=O)N(*)C8=O)cc6C5=O)cc4)cc3)cc2)c1` (repeat unit) yielded a glass transition temperature of 241.00 °C.
In the case of `*Sc1ccc2c(c1)C(=O)N(c1ccc(Oc3ccc4ccccc4c3-c3c(Oc4ccc(N5C(=O)c6ccc(*)cc6C5=O)cc4C(F)(F)F)ccc4ccccc34)c(C(F)(F)F)c1)C2=O` (repeat unit), the glass transition temperature stood at 273.00 °C.
In turn, `*c1ccc2c(c1)C(=O)N(c1cc(C(F)(F)F)cc(N3C(=O)c4ccc(C(*)(C(F)(F)F)C(F)(F)F)cc4C3=O)c1OC(c1c(F)c(F)c(F)c(F)c1F)c1c(F)c(F)c(F)c(F)c1F)C2=O` (repeat unit) gave a glass transition temperature of 321.70 °C.
In the case of `*C(=O)c1cccc(Cc2ccc3c(c2)C(=O)N(c2cc(N4C(=O)c5ccc(*)cc5C4=O)cc(C(F)(F)F)c2)C3=O)c1` (repeat unit) it was 253.00 °C; in that of `*c1ccc2c(c1)C(=O)N(c1cc(N3C(=O)c4ccc(S(*)(=O)=O)cc4C3=O)cc(C(F)(F)F)c1)C2=O` (repeat unit), 310.00 °C.
On to `*c1ccc2c(c1)C(=O)N(c1cc(N3C(=O)c4ccc(*)cc4C3=O)cc(C(F)(F)F)c1)C2=O` (repeat unit), for which the glass transition temperature worked out at 329.00 °C.
In the case of `*c1ccc2c(c1)C(=O)N(c1ccc(-c3ccc(N4C(=O)c5ccc(C(*)(C(F)(F)F)C(F)(F)F)cc5C4=O)cc3C#N)c(C#N)c1)C2=O` (repeat unit) it was 331.00 °C.
In the case of `*c1ccc2c(c1)C(=O)N(c1ccc(-c3ccc(N4C(=O)c5ccc(C(*)(C(F)(F)F)C(F)(F)F)cc5C4=O)cc3C)c(C)c1)C2=O` (repeat unit) it was 325.00 °C.
The compound `*c1ccc2c(c1)C(=O)N(c1ccc(-c3ccc(N4C(=O)c5ccc(C(*)(C(F)(F)F)C(F)(F)F)cc5C4=O)cc3-c3cc(C(F)(F)F)cc(C(F)(F)F)c3)c(-c3cc(C(F)(F)F)cc(C(F)(F)F)c3)c1)C2=O` (repeat unit) had a glass transition temperature of 263.00 °C.
The compound `*c1ccc2c(c1)C(=O)N(c1ccc(Oc3c(F)c(F)c(-c4c(F)c(F)c(Oc5ccc(N6C(=O)c7ccc(C(*)(C(F)(F)F)C(F)(F)F)cc7C6=O)cc5)c(F)c4F)c(F)c3F)cc1)C2=O` (repeat unit) yielded a glass transition temperature of 271.20 °C.
The compound `*C(=O)Nc1ccc2ccccc2c1-c1c(NC(=O)c2ccc3c(c2)C(=O)N(c2ccc(Oc4ccc(N5C(=O)c6ccc(*)cc6C5=O)cc4)cc2)C3=O)ccc2ccccc12` (repeat unit) had a glass transition temperature of 287.80 °C.
The compound `*c1ccc2c(c1)C(=O)N(c1ccc(OCC(F)(F)C(F)(F)C(F)(F)C(F)(F)C(F)(F)C(F)(F)C(F)(F)F)c(N3C(=O)c4ccc(C(*)(C(F)(F)F)C(F)(F)F)cc4C3=O)c1)C2=O` (repeat unit) displayed a glass transition temperature of 226.00 °C.
In turn, `*c1ccc2c(c1)C(=O)N(c1ccc(OCC(F)(F)C(F)(F)C(F)(F)C(F)(F)C(F)(F)C(F)(F)C(F)(F)C(F)(F)C(F)(F)C(F)(F)F)c(N3C(=O)c4ccc(C(*)(C(F)(F)F)C(F)(F)F)cc4C3=O)c1)C2=O` (repeat unit) returned a glass transition temperature of 189.00 °C.
In the case of `*C(=O)c1ccc2c(c1)C(=O)N(c1ccc(C)c(N3C(=O)c4ccc(*)cc4C3=O)c1C)C2=O` (repeat unit) it was 384.00 °C; in that of `*C(=O)c1ccc2c(c1)C(=O)N(c1ccc(Oc3cccc(N4C(=O)c5ccc(*)cc5C4=O)c3)cc1)C2=O` (repeat unit), 252.00 °C.
As for `*c1cccc2c1C(=O)N(c1ccc(C3(c4ccc(N5C(=O)c6cccc(*)c6C5=O)c(C)c4)c4ccccc4-c4ccccc43)cc1C)C2=O` (repeat unit), the glass transition temperature was found to be 313.00 ± 2.8 °C.
In turn, `*Sc1cccc2c1C(=O)N(c1cc(Cc3ccc(N4C(=O)c5cccc(*)c5C4=O)c(C)c3)ccc1C)C2=O` (repeat unit) displayed a glass transition temperature of 274.00 °C.
In the case of `*C1=C(Cl)C(=O)N(c2ccc(Cc3ccc(N4C(=O)C(Cl)=C(Oc5ccc(C(C)(C)c6ccc(*)cc6)cc5)C4=O)cc3)cc2)C1=O` (repeat unit) it was 173.00 °C; in that of `*C1=C(Cl)C(=O)N(c2ccc(Cc3ccc(N4C(=O)C(Cl)=C(Oc5ccc(*)cc5)C4=O)cc3)cc2)C1=O` (repeat unit), 192.00 °C.
In turn, `*Oc1cccc(C(C)(C)c2ccc(Oc3cccc4c3C(=O)N(c3ccc(Oc5ccc(N6C(=O)c7cccc(*)c7C6=O)cc5)cc3)C4=O)cc2)c1` (repeat unit) showed a glass transition temperature of 235.00 °C.
In the case of `*Oc1cccc(C(=O)c2ccc(Oc3cccc4c3C(=O)N(c3ccc(Oc5ccc(N6C(=O)c7cccc(*)c7C6=O)cc5)cc3)C4=O)cc2)c1` (repeat unit) it was 252.00 °C; in that of `*Sc1cccc2c1C(=O)N(c1ccc(Oc3ccc(Oc4ccc(N5C(=O)c6cccc(*)c6C5=O)cc4)cc3)cc1)C2=O` (repeat unit), 250.00 °C.
In the case of `*Oc1cccc(C(C)(C)c2ccc(Oc3ccc4c(c3)C(=O)N(c3ccc(Oc5cccc(Oc6ccc(N7C(=O)c8ccc(*)cc8C7=O)cc6)c5)cc3)C4=O)cc2)c1` (repeat unit) it was 178.00 °C; in that of `*Oc1cccc(Oc2ccc(Oc3ccc4c(c3)C(=O)N(c3ccc(Oc5cccc(Oc6ccc(N7C(=O)c8ccc(*)cc8C7=O)cc6)c5)cc3)C4=O)cc2)c1` (repeat unit), 184.00 °C.
Turning to `*Oc1cccc(C(C)(C)c2ccc(Oc3cccc4c3C(=O)N(c3ccc(Oc5cccc(Oc6ccc(N7C(=O)c8cccc(*)c8C7=O)cc6)c5)cc3)C4=O)cc2)c1` (repeat unit), the glass transition temperature was found to be 202.00 °C.
On to `*Oc1cccc(Oc2ccc(Oc3cccc4c3C(=O)N(c3ccc(Oc5cccc(Oc6ccc(N7C(=O)c8cccc(*)c8C7=O)cc6)c5)cc3)C4=O)cc2)c1` (repeat unit), for which the glass transition temperature was 198.00 °C.
The compound `*Oc1cccc(Sc2ccc(Oc3cccc4c3C(=O)N(c3ccc(Oc5cccc(Oc6ccc(N7C(=O)c8cccc(*)c8C7=O)cc6)c5)cc3)C4=O)cc2)c1` (repeat unit) came in with a glass transition temperature of 230.00 °C.
In the case of `*Oc1ccc2c(c1)C(=O)N(c1ccc(Sc3ccc(N4C(=O)c5ccc(*)cc5C4=O)cc3)cc1)C2=O` (repeat unit), the glass transition temperature worked out at 269.00 °C.
In the case of `*Oc1cccc2c1C(=O)N(c1cccc(C(=O)c3cccc(N4C(=O)c5cccc(*)c5C4=O)c3)c1)C2=O` (repeat unit) it was 234.00 °C.
Consider `*Oc1cccc(Oc2ccc(Oc3ccc4c(c3)C(=O)N(c3cccc(N5C(=O)c6ccc(*)cc6C5=O)c3)C4=O)cc2)c1` (repeat unit), for which the glass transition temperature came out at 227.00 °C.
In the case of `*Oc1cccc(Sc2ccc(Oc3ccc4c(c3)C(=O)N(c3cccc(N5C(=O)c6ccc(*)cc6C5=O)c3)C4=O)cc2)c1` (repeat unit) it was 209.00 °C; in that of `*Oc1ccc2c(c1)C(=O)N(c1cccc(C(=O)c3cccc(N4C(=O)c5ccc(*)cc5C4=O)c3)c1)C2=O` (repeat unit), 239.00 ± 4 °C.
In turn, `*c1ccc(Oc2ccc(Oc3ccc(-n4c(=O)c5ccc6c(=O)n(*)c(=O)c6c5c4=O)cc3)cc2)cc1` (repeat unit) gave a glass transition temperature of 292.00 °C.

The values are drawn from the PolyMetriX glass transition set.
